ChEMBL document CHEMBL5550126, “Identification of naphthalimide-derivatives as novel PBD-targeted polo-like kinase 1 inhibitors with efficacy in drug-resistant lung cancer cells” (Eur J Med Chem, 2024)
Calls of active or inactive are those of the source. The rule behind the calls is not given here.

Legend:
A549/CDDP [1] = experiment: Disruption of redox homeostasis in human A549/DDP cells assessed as reduction in GSH level at 0 to 9 uM measured after 48 hrs; type: functional, cell-based; conditions: dose 0-9 µM
[2] = biological target: T1, Serine/threonine-protein kinase PLK1 (Homo sapiens, UniProt P53350); experiment: Binding affinity to recombinant PLK1 (unknown origin) assessed as dissociation constant by SPR analysis
MCF7 = experiment: Anticancer activity against human MCF7 cells assessed as inhibition of cell growth incubated for 48 hrs by crystal violet staining based analysis; type: functional; conditions: MCF7, 48 h
T-24 = experiment: Anticancer activity against human T24 cells assessed as inhibition of cell growth incubated for 48 hrs by crystal violet staining based analysis; type: functional; conditions: T-24, 48 h
SK-OV-3 = experiment: Anticancer activity against human SK-OV-3 cells assessed as inhibition of cell growth incubated for 48 hrs by crystal violet staining based analysis; type: functional; conditions: SK-OV-3, 48 h
[3] = biological target: T1, Serine/threonine-protein kinase PLK1; experiment: Inhibition of PLK1 in human A549/DDP cells assessed as reduction in PLK1 phosphorylation measured after 48 hrs by Western blot analysis; type: cell-based
A549/CDDP [4] = experiment: Induction of cell cycle arrest at G2/M phase in human A549/DDP cells at 0 to 15 uM measured after 48 hrs by RNase A/PI staining based flow cytometry analysis; type: functional; conditions: dose 0-15 µM
[5] = biological target: T1, Serine/threonine-protein kinase PLK1; experiment: Binding affinity to recombinant PLK1 (unknown origin) assessed as signal attenuation at 200 uM by NMR analysis
[6] = biological target: T1, Serine/threonine-protein kinase PLK1; experiment: Binding affinity to PLK1 in human A549/DDP intact cells assessed as thermal stabilization at 3 uM at 44 to 64 degreeC incubated for 2 hrs by CETSA; type: cell-based
[7] = biological target: T1, Serine/threonine-protein kinase PLK1; experiment: Binding affinity to PLK1 in human A549/DDP cell lysates assessed as thermal stabilization at 20 uM at 44 to 64 degreeC incubated for 2 hrs by CETSA; type: subcellular; conditions: Lysate
[8] = biological target: T1, Serine/threonine-protein kinase PLK1; experiment: Binding affinity to FLAG-tagged PLK1 PBD region (unknown origin) transfected in human A549 cells at 10 uM incubated for 1 hr by coimmunoprecipitation-MS analysis; type: cell-based
A549/CDDP [9] = experiment: Effect on cyclin A2 protein expression in human A549/DDP cells assessed as effect on protein abundance at 0 to 6 uM measured after 48 hrs by Western blot analysis; type: functional, cell-based; conditions: dose 0-6 µM
A549/CDDP [10] = experiment: Effect on CDK2 protein expression in human A549/DDP cells assessed as effect on protein abundance at 0 to 6 uM measured after 48 hrs by Western blot analysis; type: functional, cell-based; conditions: dose 0-6 µM
A549/CDDP [11] = experiment: Effect on p-CDK2 protein expression in human A549/DDP cells assessed as effect on protein abundance at 0 to 6 uM measured after 48 hrs by Western blot analysis; type: functional, cell-based; conditions: dose 0-6 µM
A549 [12] = experiment: Induction of mitotic catastrophe in human A549 cells assessed as appearance of multinucleated cells during mitosis at 1.5 uM measured after 48 hrs by immunostaining based laser confocal microscopic analysis; type: functional, cell-based
A549 [13] = experiment: Induction of mitotic catastrophe in human A549 cells assessed as reduction in PRC1 recruitment by PLK1 in anaphase at 1.5 to 3 uM measured after 48 hrs by immunostaining based laser confocal microscopic analysis; type: functional, cell-based; conditions: dose 1.5-3 µM
A549 [14] = experiment: Induction of mitotic catastrophe in human A549 cells assessed as downregulation of CDK1-cyclin B1 complex protein expression at 1.5 to 6 uM measured after 48 hrs by Western blot analysis; type: functional, cell-based; conditions: dose 1.5-6 µM
A549 [15] = experiment: Induction of mitotic catastrophe in human A549 cells assessed as downregulation of CDC25 protein expression at 1.5 to 6 uM measured after 48 hrs by Western blot analysis; type: functional, cell-based; conditions: dose 1.5-6 µM
[16] = GSH reactivity in human A549/DDP cells assessed as increase in fluorescence intensity measured after 48 hrs; type: ADME, cell-based; conditions: dose 0-9 µM
A549/CDDP [17] = experiment: Antitumor activity against human A549/DDP cells assessed as male BALB/c nude mouse assessed as increase in survival time at 30 to 50 mg/kg, ip administered every 2 days for 32 days; type: functional, organism-based; conditions: dose 30-50 mg/kg, time 32.0 day
A549/CDDP [18] = experiment: Antitumor activity against human A549/DDP cells assessed as male BALB/c nude mouse assessed as median survival time at 30 mg/kg, ip administered every 2 days for 32 days (reference value: 38 days); type: functional; conditions: time 32 day
A549/CDDP [19] = experiment: Antitumor activity against human A549/DDP cells assessed as male BALB/c nude mouse assessed as median survival time at 50 mg/kg, ip administered every 2 days for 32 days (reference value: 38 days); type: functional; conditions: time 32 day
[20] = Toxicity in male BALB/c nude mouse xenografted with human A549/DDP cells assessed as change in heart index at 30 mg/kg, ip administered every 2 days for 32 days; type: organism-based, A549/CDDP; conditions: in vivo, 768 h, time 32 day
[21] = Toxicity in male BALB/c nude mouse xenografted with human A549/DDP cells assessed as change in liver index at 30 to 50 mg/kg, ip administered every 2 days for 32 days; type: organism-based, A549/CDDP; conditions: in vivo, 768 h, dose 30-50 mg/kg, time 32 day
[22] = Toxicity in male BALB/c nude mouse xenografted with human A549/DDP cells assessed as change in kidney index at 30 to 50 mg/kg, ip administered every 2 days for 32 days; type: organism-based, A549/CDDP; conditions: in vivo, 768 h, dose 30-50 mg/kg, time 32 day
[23] = Toxicity in male BALB/c nude mouse xenografted with human A549/DDP cells assessed as change in lung index at 30 to 50 mg/kg, ip administered every 2 days for 32 days; type: organism-based, A549/CDDP; conditions: in vivo, 768 h, dose 30-50 mg/kg, time 32 day
[24] = Toxicity in male BALB/c nude mouse xenografted with human A549/DDP cells assessed as liver damage at 30 to 50 mg/kg, ip administered every 2 days for 32 days by H and E staining based analysis; type: organism-based, A549/CDDP; conditions: in vivo, 768 h, dose 30-50 mg/kg, time 32 day
[25] = Toxicity in male BALB/c nude mouse xenografted with human gefitinib resistant NCI-H1975 cells assessed as lung damage at 30 mg/kg, po administered every 2 days for 20 days and measured 3 times a week by H and E staining based analysis; type: organism-based; conditions: in vivo, 480 h, time 20 day

T1 sequence (P53350 whole entry): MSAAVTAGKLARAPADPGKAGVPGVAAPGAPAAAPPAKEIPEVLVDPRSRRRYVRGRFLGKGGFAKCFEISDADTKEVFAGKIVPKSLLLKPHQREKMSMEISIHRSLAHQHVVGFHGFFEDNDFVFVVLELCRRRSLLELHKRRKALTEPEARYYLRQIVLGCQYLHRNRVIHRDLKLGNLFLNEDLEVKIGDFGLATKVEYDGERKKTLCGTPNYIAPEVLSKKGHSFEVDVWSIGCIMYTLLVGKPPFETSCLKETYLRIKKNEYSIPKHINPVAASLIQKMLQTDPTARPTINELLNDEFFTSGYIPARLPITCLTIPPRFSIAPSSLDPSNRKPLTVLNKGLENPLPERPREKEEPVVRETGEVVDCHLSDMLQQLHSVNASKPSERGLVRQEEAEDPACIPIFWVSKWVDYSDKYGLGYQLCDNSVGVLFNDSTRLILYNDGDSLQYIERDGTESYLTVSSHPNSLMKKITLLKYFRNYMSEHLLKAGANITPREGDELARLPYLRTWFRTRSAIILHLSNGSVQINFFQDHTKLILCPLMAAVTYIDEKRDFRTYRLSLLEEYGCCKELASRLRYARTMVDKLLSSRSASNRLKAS

CN(C)CCN1C(=O)c2cccc3c(S(=O)(=O)NCc4ccc(F)cc4)ccc(c23)C1=O
Activity (A549/CDDP [1]): Active | Kd [2]: 290 nM | IC50 (MCF7): 6540 nM | IC50 (T-24): 2900 nM | IC50 (SK-OV-3): 2840 nM | inhibition [3]: Active | Activity (A549/CDDP [4]): Active | Activity [5]: Active | Activity [6]: Active | Activity [7]: Active | Activity [8]: Active | Activity (A549/CDDP [9]): Active | Activity (A549/CDDP [10]): Active | Activity (A549/CDDP [11]): Active | Activity (A549 [12]): Active | Activity (A549 [13]): Active | Activity (A549 [14]): Active | Activity (A549 [15]): Active | Drug metabolism [16]: Metabolite_Detected | Activity (A549/CDDP [17]): Active | MSD (A549/CDDP [18]): 53 days | MSD (A549/CDDP [19]): 62 days | Activity [20]: Toxic | Activity [21]: Non-Toxic | Activity [22]: Non-Toxic | Activity [23]: Non-Toxic | Activity [24]: Non-Toxic | Activity [25]: Non-Toxic
